Results on six molecules are retold here after patent US20220002288A1, “MONOBACTAM COMPOUNDS AND USE THEREFOR” (priority 2018, published 2022).

Structures are written as SMILES. ≈ marks a conversion by molar mass, not a printed value. Structures can show the parent of a compound that is named as a salt.

What all share (test): In vitro antibacterial activity, minimum inhibitory concentration (MIC)
What all share (type): cell-based

One assay deals with Pseudomonas aeruginosa. The protocol:
(§1) Compounds: The compounds prepared in the above examples and comparative examples. All test compounds were dissolved and diluted with DMSO, and the final concentrations were prepared as 64, 32, 16, 8, 4, 2, 1, 0.5, 0.25, 0.125, 0.0625 μg/mL in the experiment.
(§2) Bacterial strains: 6 strains of Acinetobacter baumannii (codenames: HDBAB-YK4, HDBAB-YK7, HDBAB-YK12, HDBAB-YK16, HDBAB_OXA_7, ATCC 19606), 2 strains of Pseudomonas aeruginosa (codenames: HDBPA-YK9, HDBPA)-YK15), 1 strain of Escherichia coli (codename: CLB30048), all provided by HD Biosciences (Shanghai) Co., Ltd.
(§3) Medium: Trypticase soy agar (TSA) (BD BBL 211043), and Cation-adjusted Mueller Hinton broth (CAMHB) (BD BBL212322).
(§4) The bacteria used for the minimum inhibitory concentration (MIC) test were stored frozen at −80° C., and needed 2 days to recover before use. A small amount of frozen bacteria was scraped with a sterile inoculation loop for streak inoculation on a TSA solid medium petri dish. The dish was placed in an ordinary incubator at 35±2° C. for 20-24 hours. 5-10 Colonies with similar morphologies were picked from the above-mentioned petri dish with a sterile inoculating loop for streak inoculation again on a TSA solid medium petri dish. The dish was then placed in an ordinary incubator at 35±2° C. for 20-24 hours.
(§5) 1.02×CAMHB liquid medium was taken out from a 4° C. refrigerator and placed at room temperature for preheating. 5-10 Individual bacterial colonies were picked from the solid petri dish of the above Section 2.1 and re-suspended in 500 μL of 0.9% NaCl, and then the OD600 was adjusted to 0.1-0.15 with a spectrophotometer. Then the bacteria were diluted 400 times with 1.02×CAMHB (two-step dilution method: firstly diluting 10 times, then diluting 40 times).
(§6) The number of inoculated bacteria can be obtained by counting the colonies on the petri dish (see Section 2.4).
(§7) One compound was arranged in each row of a 96-well test plate: the highest test concentration for each compound was 64 μg/mL, which was diluted by a factor of two.
(§8) Growth control (GC): 1.02×CAMHB and dimethyl sulfoxide (DMSO) containing bacterial inoculum, no compound.
(§9) Sterile control (SC): Containing 1.02×CAMHB and DMSO, no compound.
(§10) All test compounds were dissolved and diluted with DMSO. 50 μL of 3.2 mg/mL of each test compound was transferred to the initial well (A1-H1) of the dilution plate, and then 25 μL of DMSO was transferred to other wells. The test compounds were sequentially diluted by a factor of 2 from column 1 to column 11 (i.e. drawing 25 μL of test compound from column 1 to column 2 and mixing well, and then drawing 25 μL of test compound from column 2 to column 3 and mixing well, and then drawing 25 μL of test compound from column 3 to column 4 and mixing well, and so on, until diluting to column 11).
(§11) 2 μL of the compound was transferred from the compound plate to the corresponding well of the test plate. Meanwhile, 2 μL of 100% DMSO was transferred to the compound-free wells (the GC and SC wells).
(§12) 98 μL of the corresponding bacterial inoculum was added to the test plate (except for the SC well).
(§13) 98 μL of 1.02×CAMHB medium was added to the SC well of the test plate.
(§14) After the system was added, the test plate was covered with a sterile lid, centrifuged at 800 rpm for 30 seconds, then shaken on a plate shaker at 400 rpm for 1 minute for mixing well, and then placed in an incubator at 35±2° C. for 20 hours.
(§15) The inoculated bacteria were gradient diluted by 10 folds with the liquid medium, from 10^−1 to 10^−3. 100 μL of the above bacterial dilution was spread evenly on a TSA petri dish, 2 replicates for each dilution. After the medium was absorbed by TSA for 10 minutes, the petri dishes were reversed and incubated in an incubator at 35±2° C. for 24 hours.
(§16) A compound management system was turned on to check whether the barcode and compound arrangement of each test plate were correct. […]

Another assay concerns Acinetobacter baumannii. The protocol: as §1, §2, §3, §4, §5, §6, §7, §8, §9, §10, §11, §12, §13, §14, §15, §16
In another assay the test system is Escherichia coli. To be noted: strain CLB30048, read-out: MIC. The protocol:
as §1, §2, §3, §4, §5, §6, §7, §8, §9, §10, §11, §12, §13, §14, §15, §16

The MIC is the least concentration at which growth counts as inhibited. Consider `CC1(C)[C@H](NC(=O)/C(=N\O[C@@H](CCCOc2ccc(-c3cn(CCCN)[n+](CC4CNC4)c3)cc2)C(=O)O)c2csc(N)n2)C(=O)N1OS(=O)(=O)[O-]` [Example 10, (S)-3-((Z)-2-(((S)-4-(4-(1-(3-aminopropyl)-2-(azetidin-3-ylmethyl)-1H-pyrazol-2-ium-4-yl)phenoxy)-1-carboxybutoxy)imino)-2-(2-aminothiazol-4-yl)acetylamino)-2,2-dimethyl-4-oxoazetidin-1-yl Sulfate], for which the MIC in the assay on Pseudomonas aeruginosa (strain HDBPA-YK9) was 8 µg/mL; with Pseudomonas aeruginosa (strain HDBPA-YK15) it was 32 µg/mL; in the assay with Acinetobacter baumannii (ATCC19606, strain ATCC 19606), 4 µg/mL; against Acinetobacter baumannii (strain HDBAB-YK4) it was 8 µg/mL; with Acinetobacter baumannii (strain HDBAB-YK7), 0.5 µg/mL; with Acinetobacter baumannii (strain HDBAB-YK12), 8 µg/mL. Also, the minimum inhibitory concentration (MIC) in the assay with Acinetobacter baumannii (strain HDBAB-YK16) amounted to 16 µg/mL; against Acinetobacter baumannii (strain HDBAB_OXA_7), 8 µg/mL; with Escherichia coli, 1 µg/mL.
Consider `CC1(C)[C@H](NC(=O)/C(=N\O[C@@H](COc2ccc(-c3ccc4[nH]c(CN)nc4c3)cc2)C(=O)O)c2csc(N)n2)C(=O)N1OS(=O)(=O)O` [Example 11, (S)-3-(4-(2-(aminomethyl)-1H-benzo[d]imidazol-5-yl)phenoxy)-2-((((Z)-1-(2-aminothiazol-4-yl)-2-(((S)-2,2-dimethyl-4-oxo-1-(sulfonyloxy)azetidin-3-yl)amino)-2-oxoethylene)amino)oxy)propionic Acid], for which the MIC is 32 µg/mL (≈ 46.5 µM) against Pseudomonas aeruginosa (strain HDBPA-YK9); > 64 µg/mL with Pseudomonas aeruginosa (strain HDBPA-YK15); > 64 µg/mL in the assay with Acinetobacter baumannii (ATCC19606, strain ATCC 19606); > 64 µg/mL against Acinetobacter baumannii (strain HDBAB-YK4); > 64 µg/mL against Acinetobacter baumannii (strain HDBAB-YK7); 16 µg/mL (≈ 23.2 µM) against Acinetobacter baumannii (strain HDBAB-YK12). For the same molecule, the minimal inhibitory concentration (MIC) against Acinetobacter baumannii (strain HDBAB-YK16) is > 64 µg/mL; in the assay on Acinetobacter baumannii (strain HDBAB_OXA_7), > 64 µg/mL; in the assay on Escherichia coli, 32 µg/mL (≈ 46.5 µM).
As to `CC1(C)[C@H](NC(=O)/C(=N\O[C@@H](COc2ccc(-c3ccc(NC(=O)[C@@H](N)CO)nc3)cc2)C(=O)O)c2csc(N)n2)C(=O)N1OS(=O)(=O)O` [Example 7], the MIC with Pseudomonas aeruginosa (strain HDBPA-YK9) was 32 µg/mL (≈ 44.3 µM); in the assay with Pseudomonas aeruginosa (strain HDBPA-YK15) it was > 64 µg/mL; against Acinetobacter baumannii (ATCC19606, strain ATCC 19606), 64 µg/mL (≈ 88.6 µM); in the assay on Acinetobacter baumannii (strain HDBAB-YK4), > 64 µg/mL; with Acinetobacter baumannii (strain HDBAB-YK7), > 64 µg/mL; in the assay on Acinetobacter baumannii (strain HDBAB-YK12), 16 µg/mL (≈ 22.1 µM). In addition, the minimal inhibitory concentration (MIC) was > 64 µg/mL with Acinetobacter baumannii (strain HDBAB-YK16), > 64 µg/mL in the assay on Acinetobacter baumannii (strain HDBAB_OXA_7) and 64 µg/mL (≈ 88.6 µM) with Escherichia coli.
Turning to `C[n+]1cc(-c2ccc(OC[C@H](O/N=C(\C(=O)N[C@@H]3C(=O)N(OS(=O)(=O)[O-])C3(C)C)c3csc(N)n3)C(=O)O)cc2)ccc1NC(=O)[C@H](N)CCCCN` [Example 8], the MIC in the assay with Pseudomonas aeruginosa (strain HDBPA-YK9) is 16 µg/mL (≈ 20.6 µM); against Pseudomonas aeruginosa (strain HDBPA-YK15) it was > 64 µg/mL; in the assay with Acinetobacter baumannii (ATCC19606, strain ATCC 19606), 2 µg/mL (≈ 2.57 µM); with Acinetobacter baumannii (strain HDBAB-YK4) it was 4 µg/mL (≈ 5.14 µM); against Acinetobacter baumannii (strain HDBAB-YK7) it was 1 µg/mL (≈ 1.29 µM); against Acinetobacter baumannii (strain HDBAB-YK12), 2 µg/mL (≈ 2.57 µM). Further, the minimum inhibitory concentration (MIC) was 16 µg/mL (≈ 20.6 µM) in the assay with Acinetobacter baumannii (strain HDBAB-YK16), 8 µg/mL (≈ 10.3 µM) in the assay with Acinetobacter baumannii (strain HDBAB_OXA_7) and 8 µg/mL (≈ 10.3 µM) in the assay on Escherichia coli.
As to `CC1(C)[C@H](NC(=O)/C(=N\O[C@@H](COc2ccc(-c3ccc(NC(=O)[C@@H](N)CCCCN)nc3)cc2)C(=O)O)c2csc(N)n2)C(=O)N1OS(=O)(=O)O` [Example 5, (S)-2-((((Z)-1-(2-aminothiazol-4-yl)-2-(((S)-2,2-dimethyl-4-oxo-1-(sulfonyloxy)azetidin-3-yl)amino)-2-oxoethylene)amino)oxy)-3-(4-(6-((S)-2,6-diaminohexanamido)pyridin-3-yl)phenoxy)propionic Acid], the minimal inhibitory concentration (MIC) in the assay on Pseudomonas aeruginosa (strain HDBPA-YK9) is 32 µg/mL (≈ 41.9 µM); in the assay on Pseudomonas aeruginosa (strain HDBPA-YK15), > 64 µg/mL; in the assay with Acinetobacter baumannii (ATCC19606, strain ATCC 19606) it was 8 µg/mL (≈ 10.5 µM); in the assay on Acinetobacter baumannii (strain HDBAB-YK4), 32 µg/mL (≈ 41.9 µM); in the assay on Acinetobacter baumannii (strain HDBAB-YK7), > 64 µg/mL; in the assay with Acinetobacter baumannii (strain HDBAB-YK12), 4 µg/mL (≈ 5.24 µM). Further, the results for the minimal inhibitory concentration (MIC) against Acinetobacter baumannii (strain HDBAB-YK16), against Acinetobacter baumannii (strain HDBAB_OXA_7) and with Escherichia coli were 64 µg/mL (≈ 83.8 µM), 16 µg/mL (≈ 20.9 µM) and 8 µg/mL (≈ 10.5 µM), respectively.
Consider `C[n+]1cc(-c2ccc(OC[C@H](O/N=C(\C(=O)N[C@@H]3C(=O)N(OS(=O)(=O)[O-])C3(C)C)c3csc(N)n3)C(=O)O)cc2)ccc1NC(=O)[C@@H](N)CO` [Example 6], for which the MIC in the assay with Pseudomonas aeruginosa (strain HDBPA-YK9) was 64 µg/mL (≈ 86.9 µM); against Pseudomonas aeruginosa (strain HDBPA-YK15) it was > 64 µg/mL; with Acinetobacter baumannii (ATCC19606, strain ATCC 19606) it was 64 µg/mL (≈ 86.9 µM); against Acinetobacter baumannii (strain HDBAB-YK4) it was 32 µg/mL (≈ 43.4 µM); in the assay with Acinetobacter baumannii (strain HDBAB-YK7), 64 µg/mL (≈ 86.9 µM); in the assay with Acinetobacter baumannii (strain HDBAB-YK12) it was 4 µg/mL (≈ 5.43 µM). Further, the values for the MIC against Acinetobacter baumannii (strain HDBAB-YK16), in the assay on Acinetobacter baumannii (strain HDBAB_OXA_7) and with Escherichia coli were > 64 µg/mL, 32 µg/mL (≈ 43.4 µM) and 32 µg/mL (≈ 43.4 µM), respectively.
